From PubChem BioAssay (NCI)
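1) Cells in 96-well plates. 2) Compound, 48 h, 5 concentrations. 3) Linear interpolation between surrounding doses. 4) Unreached endpoint = highest concentration. TGI is the concentration that stops growth completely.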

How the values were obtained:
Test in all cases: inhibition of tumour cell growth, NCI panel, 48 h
786-0 renal = system: 786-0 renal
A498 renal = system: A498 renal
A549 NSCLC = system: A549 NSCLC
ACHN renal = system: ACHN renal
CCRF-CEM leukemia = system: CCRF-CEM leukemia
COLO 205 colon = system: COLO 205 colon
DMS 114 small cell lung = system: DMS 114 small cell lung
DMS 273 small cell lung = system: DMS 273 small cell lung
EKVX NSCLC = system: EKVX NSCLC
HCT-116 colon = system: HCT-116 colon
HCT-15 colon = system: HCT-15 colon
HL-60(TB) leukemia = system: HL-60(TB) leukemia
HOP-18 NSCLC = system: HOP-18 NSCLC
HOP-62 NSCLC = system: HOP-62 NSCLC
HT29 colon = system: HT29 colon
IGROV1 ovarian = system: IGROV1 ovarian
K-562 leukemia = system: K-562 leukemia
KM12 colon = system: KM12 colon
KM20L2 colon = system: KM20L2 colon
LOX IMVI melanoma = system: LOX IMVI melanoma
LXFL 529 NSCLC = system: LXFL 529 NSCLC
M14 melanoma = system: M14 melanoma
MALME-3M melanoma = system: MALME-3M melanoma
MOLT-4 leukemia = system: MOLT-4 leukemia
NCI-H226 lung = system: NCI-H226 lung
NCI-H23 lung = system: NCI-H23 lung
NCI-H460 lung = system: NCI-H460 lung
OVCAR-3 ovarian = system: OVCAR-3 ovarian
OVCAR-4 ovarian = system: OVCAR-4 ovarian
OVCAR-5 ovarian = system: OVCAR-5 ovarian
OVCAR-8 ovarian = system: OVCAR-8 ovarian
RPMI-8226 leukemia = system: RPMI-8226 leukemia
RXF-631 renal = system: RXF-631 renal
SF-295 CNS = system: SF-295 CNS
SF-539 CNS = system: SF-539 CNS
SK-MEL-2 melanoma = system: SK-MEL-2 melanoma
SK-MEL-28 melanoma = system: SK-MEL-28 melanoma
SK-MEL-5 melanoma = system: SK-MEL-5 melanoma
SK-OV-3 ovarian = system: SK-OV-3 ovarian
SN12C renal = system: SN12C renal
SNB-19 CNS = system: SNB-19 CNS
SNB-75 CNS = system: SNB-75 CNS
SNB-78 CNS = system: SNB-78 CNS
SR leukemia = system: SR leukemia
SW-620 colon = system: SW-620 colon
TK-10 renal = system: TK-10 renal
U251 CNS = system: U251 CNS
UACC-257 melanoma = system: UACC-257 melanoma
UACC-62 melanoma = system: UACC-62 melanoma
UO-31 renal = system: UO-31 renal
XF 498 CNS = system: XF 498 CNS
DLD-1 colon = system: DLD-1 colon
HCC-2998 colon = system: HCC-2998 colon
HOP-92 NSCLC = system: HOP-92 NSCLC
M19-MEL melanoma = system: M19-MEL melanoma
NCI-H522 lung = system: NCI-H522 lung
RXF 393 renal = system: RXF 393 renal
SF-268 CNS = system: SF-268 CNS
CAKI-1 renal = system: CAKI-1 renal

Question: Which results are given for `CCCCC(C)/C=C/C(=O)C1=C(O)/C(=C/C(=O)O)OC1=O` (centres undefined)?
Answer: TGI (786-0 renal): > 100 µM; TGI (A498 renal): > 100 µM; TGI (A549 NSCLC): > 100 µM; TGI (ACHN renal): > 100 µM; TGI (CCRF-CEM leukemia): > 100 µM; TGI (COLO 205 colon): > 100 µM; TGI (DMS 114 small cell lung): > 100 µM; TGI (DMS 273 small cell lung): > 100 µM; TGI (EKVX NSCLC): > 100 µM; TGI (HCT-116 colon): > 100 µM; TGI (HCT-15 colon): > 100 µM; TGI (HL-60(TB) leukemia): > 100 µM; TGI (HOP-18 NSCLC): > 100 µM; TGI (HOP-62 NSCLC): > 100 µM; TGI (HT29 colon): > 100 µM; TGI (IGROV1 ovarian): > 100 µM; TGI (K-562 leukemia): > 100 µM; TGI (KM12 colon): > 100 µM; TGI (KM20L2 colon): > 100 µM; TGI (LOX IMVI melanoma): > 100 µM; TGI (LXFL 529 NSCLC): > 100 µM; TGI (M14 melanoma): > 100 µM; TGI (MALME-3M melanoma): > 100 µM; TGI (MOLT-4 leukemia): > 100 µM; TGI (NCI-H226 lung): > 100 µM; TGI (NCI-H23 lung): > 100 µM; TGI (NCI-H460 lung): > 100 µM; TGI (OVCAR-3 ovarian): > 100 µM; TGI (OVCAR-4 ovarian): > 100 µM; TGI (OVCAR-5 ovarian): > 100 µM; TGI (OVCAR-8 ovarian): > 100 µM; TGI (RPMI-8226 leukemia): > 100 µM; TGI (RXF-631 renal): > 100 µM; TGI (SF-295 CNS): > 100 µM; TGI (SF-539 CNS): > 100 µM; TGI (SK-MEL-2 melanoma): > 100 µM; TGI (SK-MEL-28 melanoma): > 100 µM; TGI (SK-MEL-5 melanoma): > 100 µM; TGI (SK-OV-3 ovarian): > 100 µM; TGI (SN12C renal): > 100 µM; TGI (SNB-19 CNS): > 100 µM; TGI (SNB-75 CNS): > 100 µM; TGI (SNB-78 CNS): > 100 µM; TGI (SR leukemia): > 100 µM; TGI (SW-620 colon): > 100 µM; TGI (TK-10 renal): > 100 µM; TGI (U251 CNS): > 100 µM; TGI (UACC-257 melanoma): > 100 µM; TGI (UACC-62 melanoma): > 100 µM; TGI (UO-31 renal): > 100 µM; TGI (XF 498 CNS): > 100 µM

Question: Which results are given for `N#Cc1c(-c2ccccc2)cc(-c2ccc(N)cc2)[nH]c1=O`?
Answer: TGI (786-0 renal): > 100 µM; TGI (A498 renal): > 100 µM; TGI (A549 NSCLC): > 100 µM; TGI (ACHN renal): > 100 µM; TGI (CCRF-CEM leukemia): > 100 µM; TGI (COLO 205 colon): > 100 µM; TGI (DLD-1 colon): > 100 µM; TGI (DMS 114 small cell lung): > 100 µM; TGI (DMS 273 small cell lung): > 100 µM; TGI (EKVX NSCLC): > 100 µM; TGI (HCC-2998 colon): > 100 µM; TGI (HCT-116 colon): > 100 µM; TGI (HCT-15 colon): > 100 µM; TGI (HL-60(TB) leukemia): > 100 µM; TGI (HOP-18 NSCLC): > 100 µM; TGI (HOP-62 NSCLC): > 100 µM; TGI (HOP-92 NSCLC): > 100 µM; TGI (HT29 colon): > 100 µM; TGI (IGROV1 ovarian): > 100 µM; TGI (K-562 leukemia): > 100 µM; TGI (KM12 colon): > 100 µM; TGI (KM20L2 colon): > 100 µM; TGI (LOX IMVI melanoma): > 100 µM; TGI (LXFL 529 NSCLC): > 100 µM; TGI (M14 melanoma): > 100 µM; TGI (M19-MEL melanoma): > 100 µM; TGI (MALME-3M melanoma): > 100 µM; TGI (MOLT-4 leukemia): > 100 µM; TGI (NCI-H226 lung): > 100 µM; TGI (NCI-H23 lung): > 100 µM; TGI (NCI-H460 lung): > 100 µM; TGI (NCI-H522 lung): > 100 µM; TGI (OVCAR-3 ovarian): > 100 µM; TGI (OVCAR-4 ovarian): > 100 µM; TGI (OVCAR-5 ovarian): > 100 µM; TGI (OVCAR-8 ovarian): > 100 µM; TGI (RPMI-8226 leukemia): > 100 µM; TGI (RXF 393 renal): > 100 µM; TGI (RXF-631 renal): > 100 µM; TGI (SF-268 CNS): > 100 µM; TGI (SF-295 CNS): > 100 µM; TGI (SF-539 CNS): > 100 µM; TGI (SK-MEL-28 melanoma): > 100 µM; TGI (SK-MEL-5 melanoma): > 100 µM; TGI (SK-OV-3 ovarian): > 100 µM; TGI (SN12C renal): > 100 µM; TGI (SNB-19 CNS): > 100 µM; TGI (SNB-75 CNS): > 100 µM; TGI (SNB-78 CNS): > 100 µM; TGI (SR leukemia): > 100 µM; TGI (SW-620 colon): > 100 µM; TGI (TK-10 renal): > 100 µM; TGI (U251 CNS): > 100 µM; TGI (UACC-257 melanoma): > 100 µM; TGI (UACC-62 melanoma): > 100 µM; TGI (UO-31 renal): > 100 µM

Question: What does the source list for `CCc1cccc(C(C)C)c1NC(=O)CCl`?
Answer: TGI (786-0 renal): > 100 µM; TGI (A549 NSCLC): > 100 µM; TGI (ACHN renal): > 100 µM; TGI (CAKI-1 renal): > 100 µM; TGI (CCRF-CEM leukemia): > 100 µM; TGI (DLD-1 colon): > 100 µM; TGI (DMS 273 small cell lung): > 100 µM; TGI (EKVX NSCLC): > 100 µM; TGI (HCT-116 colon): > 100 µM; TGI (HCT-15 colon): > 100 µM; TGI (HL-60(TB) leukemia): 70.8 µM; TGI (HOP-92 NSCLC): > 100 µM; TGI (HT29 colon): > 100 µM; TGI (IGROV1 ovarian): > 100 µM; TGI (K-562 leukemia): > 100 µM; TGI (KM12 colon): > 100 µM; TGI (KM20L2 colon): > 100 µM; TGI (LOX IMVI melanoma): > 100 µM; TGI (LXFL 529 NSCLC): > 100 µM; TGI (M14 melanoma): > 100 µM; TGI (M19-MEL melanoma): > 100 µM; TGI (MALME-3M melanoma): > 100 µM; TGI (MOLT-4 leukemia): > 100 µM; TGI (NCI-H226 lung): > 100 µM; TGI (NCI-H23 lung): > 100 µM; TGI (NCI-H522 lung): > 100 µM; TGI (OVCAR-3 ovarian): > 100 µM; TGI (RPMI-8226 leukemia): > 100 µM; TGI (RXF-631 renal): 37.4 µM; TGI (SF-268 CNS): > 100 µM; TGI (SF-295 CNS): > 100 µM; TGI (SF-539 CNS): > 100 µM; TGI (SK-MEL-2 melanoma): > 100 µM; TGI (SK-MEL-28 melanoma): > 100 µM; TGI (SK-OV-3 ovarian): > 100 µM; TGI (SN12C renal): > 100 µM; TGI (SNB-19 CNS): > 100 µM; TGI (SNB-75 CNS): > 100 µM; TGI (SNB-78 CNS): > 100 µM; TGI (SR leukemia): > 100 µM; TGI (SW-620 colon): > 100 µM; TGI (TK-10 renal): > 100 µM; TGI (U251 CNS): > 100 µM; TGI (UACC-257 melanoma): > 100 µM; TGI (UACC-62 melanoma): > 100 µM; TGI (UO-31 renal): > 100 µM; TGI (XF 498 CNS): > 100 µM
